The structures appear in SMILES notation.

Broadly, the IC50 is the concentration that gives 50% inhibition.

For one test, the target named is T1, Human LBAT (Homo sapiens, UniProt Q14973).
T1 construct: expressed in transfected cells; cultured under Geneticin selection
T1 sequence (Q14973 1-349): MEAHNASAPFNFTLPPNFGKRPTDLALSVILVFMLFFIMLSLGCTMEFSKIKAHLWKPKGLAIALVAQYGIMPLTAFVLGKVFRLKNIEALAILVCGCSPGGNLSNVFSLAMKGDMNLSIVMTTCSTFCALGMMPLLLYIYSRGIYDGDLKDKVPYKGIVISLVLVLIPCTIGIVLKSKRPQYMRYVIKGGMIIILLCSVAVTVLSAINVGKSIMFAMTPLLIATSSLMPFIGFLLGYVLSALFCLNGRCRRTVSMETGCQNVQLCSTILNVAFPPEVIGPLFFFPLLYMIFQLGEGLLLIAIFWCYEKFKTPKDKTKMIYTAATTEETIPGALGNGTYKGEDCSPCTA
Briefly: LBAT (h/m) assay, human LBAT-overexpressing cells, 3H-taurocholic acid uptake. The class given is cell-based. The following applies: read-out: hLBAT IC50. On the procedure:
LBAT (h/m) Assay Protocol
20,000 cells (Human or Mouse LBAT-overexpressing cells) were seeded in 96-wells plate (Corning CLS3809) in 100 μL MEM-alpha medium (Gibco 12571-063) supplemented with 10% FBS (Gibco 10438026) containing Geneticin (Gibco 10131-027) (1 mg/mL) and incubated at 37° C. in 5% CO2 for 24 hours. After incubation, media was decanted from the wells and cells were washed two times with 300 μL of basal MEM-alpha medium (FBS-free). After decanting basal MEM-alpha medium each time, plates were tapped against paper towel to ensure maximum removal of residual media. For human LBAT, incubation mix was prepared by adding test inhibitor dilutions (3-fold serial dilution in DMSO (Sigma D2650), 10 points) in MEM-alpha (without FBS) containing 0.3 μM 3H-taurocholic acid (ARC ART-1368) and 7.5 μM cold taurocholic acid (Sigma T4009) (maintaining 0.2% final DMSO concentration). For mouse LBAT, incubation mix was prepared by adding test inhibitor dilutions (3-fold serial dilution in DMSO, 10 points) in MEM-alpha (without FBS) containing 0.3 μM 3H-taurocholic acid and 25 μM cold taurocholic acid maintaining 0.2% final DMSO concentration). 50 μL of incubation mix containing test inhibitors was then added to the wells (in duplicate) and the plates were incubated for 20 minutes in a CO2 incubator at 37° C. After incubation, the reaction was stopped by keeping the plates on ice water mix for 2-3 minutes and then the incubation mix was aspirated completely from the wells. The wells were washed two times with 250 μL of chilled unlabeled 1 mM taurocholic acid dissolved in HEPES (Gibco 15630080)-buffered (10 mM) HBSS (Gibco 14175079) (pH 7.4). The plates were tapped against a paper towel after every wash to ensure maximum removal of blocking buffer.
100 μL of MicroScint-20 (PerkinElmer 6013621) was added to the wells and kept overnight at room temperature before reading the plates in TopCount NXT™ Microplate Scintillation and Luminescence Counter from PerkinElmer under 3H Test protocol (set at 120 seconds reading time per well, with normal plate orientation).
(§1) Preparation of Test Compound Dilutions
(§2) All test compounds were provided in powder form at room temperature. 10 mM DMSO stocks of the test compounds were prepared, aliquoted and stored at −20° C. From the 10 mM DMSO stock of the compounds, a 3-fold serial dilution in DMSO was prepared to get a total of 10 dilutions of the test compounds. 0.5 μL of this dilution in DMSO was added to 250 μL of FBS-free basal media containing 3H-taurocholic acid and cold taurocholic acid to prepare the incubation mixture.

Another test concerns the target T2, Human IBAT (Homo sapiens, UniProt Q12908).
T2 construct: expressed in transfected cells; cultured under Puromycin selection
T2 sequence (Q12908 1-348): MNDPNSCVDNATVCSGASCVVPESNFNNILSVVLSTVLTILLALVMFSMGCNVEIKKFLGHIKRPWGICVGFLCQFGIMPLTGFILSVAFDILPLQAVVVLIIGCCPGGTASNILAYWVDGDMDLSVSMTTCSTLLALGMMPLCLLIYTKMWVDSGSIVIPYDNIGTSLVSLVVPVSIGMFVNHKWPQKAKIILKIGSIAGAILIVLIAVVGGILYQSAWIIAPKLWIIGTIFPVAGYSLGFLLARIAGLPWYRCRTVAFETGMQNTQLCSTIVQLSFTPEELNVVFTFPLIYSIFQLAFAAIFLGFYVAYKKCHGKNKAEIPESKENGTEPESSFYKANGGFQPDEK
The test is described as follows: IBAT (h/m) assay, human IBAT-overexpressing cells, 3H-taurocholic acid uptake. It is filed as cell-based. Particulars: read-out: hIBAT IC50. As to the method:
IBAT (h/m) Assay Protocol
10,000 cells (Human or Mouse IBAT-overexpressing cells) were seeded in 96-wells plate (Corning CLS3809) in 200 μL MEM-alpha medium (Gibco 12571-063) supplemented with 10% FBS (Gibco 10438026) containing Puromycin (Gibco A1113803) (10 μg/mL) and incubated at 37° C. in 5% CO2 for 48 hours. After incubation, media was decanted from the wells and cells were washed two times with 300 μL of basal MEM-alpha medium (FBS-free). After decanting basal MEM-alpha medium each time, plates were tapped against paper towel to ensure maximum removal of residual media. Test inhibitor dilutions (highest test concentration being 10 μM, 3-fold serial dilution, 10 points) prepared in DMSO (Sigma D2650) were added in incubation mix (maintaining 0.2% final DMSO concentration) containing 0.25 μM 3H-taurocholic acid (ARC ART-1368) and 5 μM of cold taurocholic acid (Sigma T4009). 50 μL of incubation mix containing test inhibitors was then added to the wells (in duplicate) and the plates were incubated for 20 minutes in a CO2 incubator at 37° C. After incubation, the reaction was stopped by keeping the plates on ice water mix for 2-3 minutes and then the incubation mix was aspirated completely from the wells. The wells were washed two times with 250 μL of chilled unlabeled 1 mM taurocholic acid dissolved in HEPES (Gibco 15630080)-buffered (10 mM) HBSS (Gibco 14175079) (pH 7.4). The plates were tapped against a paper towel after every wash to ensure maximum removal of blocking buffer. 100 μL of MicroScint-20 (PerkinElmer 6013621) was added to the wells and kept overnight at room temperature before reading the plates in TopCount NXT™ Microplate Scintillation and Luminescence Counter from PerkinElmer under 3H Test protocol (set at 120 seconds reading time per well).
as §1, §2

With `CCCCC1(C)CN(c2ccc(F)cc2)c2cc(SC)c(OCC(O)C(=O)O)cc2S(=O)(=O)C1` (single isomer, unassigned) [1, diastereomer 1], the values for the IC50 on Human LBAT and at Human IBAT were 1640 nM and 1 nM, respectively.

(Values after patent publication US11377429B2, “Benzothia(di)azepine compounds and their use as bile acid modulators” (Albireo AB, priority 2020, dated 2022).)
